{"source": "patent US7829711B2", "about": "“Crystalline materials of 1-(4-benzoyl-piperazin-1-yl)-2-[4-methoxy-7-(3-methyl-[1,2,4]triazol-1-yl)-1H-pyrrolo[2,3-C]pyridine-3-yl]-ethane-1,2-dione” (Bristol-Myers Squibb Company, priority 2004, dated 2010)", "assay_type_in_all_cases": "physicochemical", "key": {"[1]": {"test": "Hygroscopicity of Form P-1"}, "[2]": {"test": "Aqueous solubility of Form P-1", "conditions": "aqueous medium"}, "[3]": {"test": "Solvent mediated polymorphic transformation (suspension of P-1 crystals in solvents)", "conditions": "room temperature or elevated temperature"}, "pKa of Form P-1": {"test": "pKa of Form P-1"}}}
{"compound": "COc1cnc(-n2cnc(C)n2)c2[nH]cc(C(=O)C(=O)N3CCN(C(=O)c4ccccc4)CC3)c12", "note": "[Form P-1, 1-(4-benzoyl-piperazin-1-yl)-2-[4-methoxy-7-(3-methyl-[1,2,4]triazol-1-yl)-1H-pyrrolo[2,3-c]pyridin-3-yl]-ethane-1,2-dione]", "values": [{"measurement": "Hygroscopicity: maximum water uptake", "setting": "[1]; at 90% RH", "result": "RH and 3.2% maximum water uptake at 90% RH)"}, {"measurement": "Hygroscopicity", "setting": "[1]; result in words", "result": "Low hygroscopicity"}, {"measurement": "Hygroscopicity: weight gain", "setting": "[1]; under 30-60% RH", "result": 1, "unit": "%"}, {"measurement": "solubility", "setting": "[2]; 25 °C, pH 5.7, aqueous buffer", "result": 2.7, "unit": "µg/mL"}, {"measurement": "solubility", "setting": "[2]; aqueous buffer, pH 8.6, 25° C.", "result": 14, "unit": "µg/mL"}, {"measurement": "solubility", "setting": "[2]; simulated gastric fluid, pH 1.4, 25° C.", "result": 12, "unit": "µg/mL"}, {"measurement": "Phase conversion on suspension in various solvents", "setting": "[3]", "result": "did not show any phase conversion"}, {"measurement": "pKa", "setting": "pKa of Form P-1", "result": 8.4}]}
